Laboratory results from patent US20240350575A1, “PLANT EXTRACT FOR ALLEVATING PULMONARY FIBROSIS, AND PREPARATION METHOD AND USE THEREOF” (Guangdong GreenTech Lemon Innovations Co., Ltd., priority 2023, published 2024).

Columns and labels:
Assay type in all cases: in vivo, SD rats
[1] = test system: rat models of pulmonary fibrosis; assay: Body weight in bleomycin-induced rat models of pulmonary fibrosis
Description: (§1) The present experimental example explored the influence of the plant extract solution prepared in Embodiments 1-3 on the body weight and lung coefficient of rats. The method was as follows:
(§2) 80 healthy SD rats including half males and half females with a body weight of 230 g±10 g were selected and divided into a blank group, a model group, embodiment group 1, embodiment group 2, embodiment group 3, comparative example group 1, comparative example group 2 and a positive control group, each group consisting of 10 rats. After the rats in each group were raised regularly for one week, each rat was intraperitoneally injected with 4% chloral hydrate at an injection dose of 10 ml/kg. The anesthetized rats were fixed in a supine position, and the rat necks were subjected to hair removal, disinfected with iodine alcohol, and longitudinally cut to expose tracheas. Except for the blank group, the rats in each group were pierced with an injector by 1 cm toward the heart through a gap between two tracheal cartilage rings, and after resistance-free withdrawal, bleomycin was injected into the trachea at a dose of 5 mg/kg. The blank group was injected with an equal volume of normal saline. Immediately after injection, the rats were rotated upright for 5 min to fully distribute the medicament in the lungs. Various layers of tissues were sutured, and local alcohol disinfection was performed. 24 hours after modeling, the rats in the blank group and the model group were intragastrically administered with normal saline at a dose of 5 mL/kg every day, the rats in the positive control group were intragastrically administered with prednisone acetate at a dose of 5 mL/kg every day, and the rats in embodiment groups 1-3 and comparative example groups 1-2 were intragastrically administered with corresponding plant extract at a dose of 5 mL/kg continuously for 28 d. During this period, the rats in each group were raised according to a conventional method.
(1) Body weight: weighed the rats in each group on the day of intragastric administration, and weighed the rats in each group every 7 d.

[2] = test system: rat models of pulmonary fibrosis; assay: Lung coefficient in bleomycin-induced rat models of pulmonary fibrosis; conditions: wet lung weight/body weight x100%, bleomycin rats, intragastric 5 mL/kg daily
Description: as §1
as §2, with “24 hours after modeling, the rats in the blank group and the model group were intragastrically administered with normal saline at a dose of 5 mL/kg every day, the rats in the positive control group were intragastrically administered with prednisone acetate at a dose of 5 mL/kg every day, and the rats in embodiment groups 1-3 and comparative example groups 1-2 were intragastrically administered with corresponding plant extract at a dose of 5 mL/kg continuously for 28 d. During this period, the rats in each group were raised according to a conventional method.” left out

[3] = test system: rat models of pulmonary fibrosis; assay: Hydroxyproline content in lung tissues of rat models of pulmonary fibrosis; conditions: lung tissue, bleomycin rats, after intragastric administration 5 mL/kg daily for 28 d
Experimental: as §2, with “24 hours after modeling, the rats in the blank group and the model group were intragastrically administered with normal saline at a dose of 5 mL/kg every day, the rats in the positive control group were intragastrically administered with prednisone acetate at a dose of 5 mL/kg every day, and the rats in embodiment groups 1-3 and comparative example groups 1-2 were intragastrically administered with corresponding plant extract at a dose of 5 mL/kg continuously for 28 d. During this period, the rats in each group were raised according to a conventional method.” left out

SMILES: CC(=O)OCC(=O)[C@@]1(O)CC[C@H]2[C@@H]3CCC4=CC(=O)C=C[C@]4(C)[C@H]3C(=O)C[C@@]21C [Positive control group, prednisone acetate]
- Initial weight ([1]; baseline, day of first intragastric administration, 24 h after bleomycin 5 mg/kg intratracheal): 228.1 g
- Weight on the 7th day ([1]; bleomycin rats, intragastric 5 mL/kg daily, day 7): 253.2 g
- Weight on the 14th day ([1]; bleomycin rats, intragastric 5 mL/kg daily, day 14): 260.7 g
- Weight on the 21st day ([1]; bleomycin rats, intragastric 5 mL/kg daily, day 21): 267.6 g
- Weight on the 28th day ([1]; bleomycin rats, intragastric 5 mL/kg daily, day 28): 273.2 g
- Lung coefficient on the 14th day ([2]; day 14): 0.568%
- Lung coefficient on the 28th day ([2]; day 28): 0.594%
- Hydroxyproline content [3]: 0.847 µg/mg
